In the supplement of paper PMC10307832:

Columns and labels:
Experiment in all cases: relative viability (nuclei count vs DMSO), 5 days (fraction); higher = more cells survive
[1] = test system: BEN
In short: (§1)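 Cells from lung cancer lines were seeded into 1536-well plates and, one day later, dosed by pin tool. Treatments were either a single drug or a fixed dose of an anchor drug with five library-drug doses (not always all listed) in √10 steps. After 5 days, nuclei were stained in a one-step fixation (final 0.05% Triton X-100, 1% formaldehyde, 1 ug/ml Hoechst) and counted on 4× images, and relative viability is the treated-to-vehicle nuclei ratio, as the median of duplicate plates.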

[2] = test system: ChaGo-K-1
In short: as §1

[3] = test system: HCC-78
In short: as §1

[4] = test system: LC-2-ad
In short: as §1

[5] = test system: LCLC-97TM1
In short: as §1

[6] = test system: LK-2
In short: as §1

[7] = test system: LU99A
In short: as §1

[8] = test system: LXF-289
In short: as §1

[9] = test system: NCI-H1355
In short: as §1

[10] = test system: NCI-H1651
In short: as §1

[11] = test system: NCI-H1666
In short: as §1

`CCN(CC)CCCCNc1ncc2cc(-c3cc(OC)cc(OC)c3)c(NC(=O)NC(C)(C)C)nc2n1` + Nc1ncn([C@H]2C[C@H](O)[C@@H](CO)O2)c(=O)n1 [Decitabine] (partner 2 µM) was tested, and the relative viability ([1]; first compound 0.01 µM) was 0.691, the relative viability ([1]; first compound 0.03162 µM) was 0.728 and the relative viability ([1]; first compound 0.1 µM) was 0.808. It also gave a relative viability ([1]; first compound 0.3162 µM) of 0.797, a relative viability ([1]; first compound 1 µM) of 0.572 and a relative viability ([2]; first compound 0.01 µM) of 0.563. For the same compound, the relative viability ([2]; first compound 0.03162 µM) was 0.516, the relative viability ([2]; first compound 0.1 µM) was 0.54 and the relative viability ([2]; first compound 0.3162 µM) was 0.539. For the same compound, the relative viability ([2]; first compound 1 µM) was 0.51, the relative viability ([3]; first compound 0.01 µM) was 0.697 and the relative viability ([3]; first compound 0.03162 µM) was 0.769. The relative viability ([3]; first compound 0.1 µM) was 0.683, the relative viability ([3]; first compound 0.3162 µM) was 0.666 and the relative viability ([3]; first compound 1 µM) was 0.636. It also gave a relative viability ([4]; first compound 0.01 µM) of 0.827, a relative viability ([4]; first compound 0.03162 µM) of 0.81 and a relative viability ([4]; first compound 0.1 µM) of 0.823. The relative viability ([4]; first compound 0.3162 µM) was 0.852, the relative viability ([4]; first compound 1 µM) was 0.775 and the relative viability ([5]; first compound 0.01 µM) was 0.269. For the same compound, the relative viability ([5]; first compound 0.03162 µM) was 0.251, the relative viability ([5]; first compound 0.1 µM) was 0.321 and the relative viability ([5]; first compound 0.3162 µM) was 0.272. It also gave a relative viability ([5]; first compound 1 µM) of 0.255, a relative viability ([6]; first compound 0.01 µM) of 0.305 and a relative viability ([6]; first compound 0.03162 µM) of 0.268. For the same compound, the relative viability ([6]; first compound 0.1 µM) was 0.192, the relative viability ([6]; first compound 0.3162 µM) was 0.217 and the relative viability ([6]; first compound 1 µM) was 0.175. For the same compound, the relative viability ([7]; first compound 0.01 µM) was 1.01, the relative viability ([7]; first compound 0.03162 µM) was 0.82 and the relative viability ([7]; first compound 0.1 µM) was 0.861. For the same compound, the relative viability ([7]; first compound 0.3162 µM) was 0.944, the relative viability ([7]; first compound 1 µM) was 0.79 and the relative viability ([8]; first compound 0.01 µM) was 0.336. It also gave a relative viability ([8]; first compound 0.03162 µM) of 0.364, a relative viability ([8]; first compound 0.1 µM) of 0.363 and a relative viability ([8]; first compound 0.3162 µM) of 0.424. For the same compound, the relative viability ([8]; first compound 1 µM) was 0.377, the relative viability ([9]; first compound 0.01 µM) was 0.364 and the relative viability ([9]; first compound 0.03162 µM) was 0.368. For the same compound, the relative viability ([9]; first compound 0.1 µM) was 0.36, the relative viability ([9]; first compound 0.3162 µM) was 0.396 and the relative viability ([9]; first compound 1 µM) was 0.339. The relative viability ([10]; first compound 0.01 µM) was 0.625, the relative viability ([10]; first compound 0.03162 µM) was 0.68 and the relative viability ([10]; first compound 0.1 µM) was 0.63. For the same compound, the relative viability ([10]; first compound 0.3162 µM) was 0.75, the relative viability ([10]; first compound 1 µM) was 0.589 and the relative viability ([11]; first compound 0.01 µM) was 0.695. The relative viability ([11]; first compound 0.03162 µM) was 0.791, the relative viability ([11]; first compound 0.1 µM) was 0.761 and the relative viability ([11]; first compound 0.3162 µM) was 0.759.
